# System: mPTPB transfected Raw264.7 cells
# Assay: Blocking mPTPB-mediated signaling, Western blotting
# Assay type: cell-based, mouse
# Settings: dose-dependent
smiles,measurement,value
"O=C(O)C(=O)Nc1ccc(C#Cc2ccc(C(F)(F)F)cc2Cl)cc1 [Compound 4t, 2-((4-((2-chloro-4-(trifluoromethyl)phenyl)ethynyl)phenyl)amino)-2-oxoacetic Acid]",Akt activity,reduced
same,IFN-γ induced phosphorylation of ERK1/2 and p38,increased
